This note sets out measurements from patent US10377753B2, “Substituted 4-azaindoles and their use as GluN2B receptor modulators” (Janssen Pharmaceutica NV, priority 2015, dated 2019).

This assay concerns the target cloned human NR1/NR2B ion channels (Homo sapiens (Human), UniProt Q05586+Q13224). In words: HNR2BC: effects of test articles on cloned human NR1/NR2B ion channels expressed in mammalian cells (FLIPR calcium flux). The assay is classed as cell-based. As to conditions: Table 5. A digest of the protocol:
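Compounds were added to dye-loaded cells for 5 min with fluorescence monitored for agonism, followed by co-agonists (glutamate ~EC80, glycine 10 μM saturating) for 5 min. Cells stably expressed inducible human NR1/NR2B, and the buffer was pH 7.4. The FLIPR Ca2+ flux signal was normalized against control wells.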
For orientation: A change in cytosolic calcium serves as a functional read-out for many receptors and channels.

The mark [1] stands for this setting: cloned human NR1/NR2B ion channels.

Chain of cloned human NR1/NR2B ion channels (Q13224 27-1484, other chains not shown): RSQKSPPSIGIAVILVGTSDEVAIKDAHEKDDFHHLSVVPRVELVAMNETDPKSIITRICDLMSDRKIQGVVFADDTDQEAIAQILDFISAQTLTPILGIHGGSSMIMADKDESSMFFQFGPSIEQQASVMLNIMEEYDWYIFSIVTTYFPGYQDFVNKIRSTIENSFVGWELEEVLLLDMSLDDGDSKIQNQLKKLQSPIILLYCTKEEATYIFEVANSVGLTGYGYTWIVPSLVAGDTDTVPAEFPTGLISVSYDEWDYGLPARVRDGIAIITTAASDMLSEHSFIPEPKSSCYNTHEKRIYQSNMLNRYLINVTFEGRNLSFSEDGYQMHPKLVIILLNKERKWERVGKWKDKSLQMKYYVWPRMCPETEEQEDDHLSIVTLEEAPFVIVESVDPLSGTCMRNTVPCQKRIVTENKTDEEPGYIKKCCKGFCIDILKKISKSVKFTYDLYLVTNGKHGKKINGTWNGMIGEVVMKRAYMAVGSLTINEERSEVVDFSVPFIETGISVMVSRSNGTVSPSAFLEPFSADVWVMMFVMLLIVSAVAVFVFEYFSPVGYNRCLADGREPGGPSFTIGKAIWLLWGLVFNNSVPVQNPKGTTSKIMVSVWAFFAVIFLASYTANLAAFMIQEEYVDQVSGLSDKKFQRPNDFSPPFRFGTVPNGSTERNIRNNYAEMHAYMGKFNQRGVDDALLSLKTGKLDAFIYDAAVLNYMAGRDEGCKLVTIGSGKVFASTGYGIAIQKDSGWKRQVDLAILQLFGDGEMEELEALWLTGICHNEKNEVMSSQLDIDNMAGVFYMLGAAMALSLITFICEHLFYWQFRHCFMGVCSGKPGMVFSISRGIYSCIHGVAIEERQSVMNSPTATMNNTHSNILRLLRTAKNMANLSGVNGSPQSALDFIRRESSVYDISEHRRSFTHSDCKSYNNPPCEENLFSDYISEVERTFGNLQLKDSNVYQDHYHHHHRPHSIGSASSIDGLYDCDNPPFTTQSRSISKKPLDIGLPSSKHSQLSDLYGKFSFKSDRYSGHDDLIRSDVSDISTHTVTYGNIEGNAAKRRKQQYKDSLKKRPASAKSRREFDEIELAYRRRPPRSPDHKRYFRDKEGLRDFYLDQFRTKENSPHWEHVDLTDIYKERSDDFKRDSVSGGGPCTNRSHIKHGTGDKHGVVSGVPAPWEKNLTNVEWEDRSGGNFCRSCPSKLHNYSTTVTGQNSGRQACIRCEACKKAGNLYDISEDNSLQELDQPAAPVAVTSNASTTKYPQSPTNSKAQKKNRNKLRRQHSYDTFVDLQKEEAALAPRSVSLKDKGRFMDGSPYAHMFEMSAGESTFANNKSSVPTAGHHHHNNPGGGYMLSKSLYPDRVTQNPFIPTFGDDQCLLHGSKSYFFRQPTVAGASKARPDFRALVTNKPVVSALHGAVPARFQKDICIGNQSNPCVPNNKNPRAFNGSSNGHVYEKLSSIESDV

Usually IC50 stands for the concentration that gives 50% inhibition. As for `Cc1cccc(-c2cnc3c(F)cn(CC(=O)N(C)C)c3c2)c1F` [Example 494, 2-[3-Fluoro-6-(2-fluoro-3-methyl-phenyl)pyrrolo[3,2-b]pyridin-1-yl]-N,N-dimethyl-acetamide], the IC50 under setting [1] is 316 nM.
On to `Cc1cc2ncc(-c3ccc(F)cc3)cc2n1CC(=O)NC1CC1` [Example 38, N-Cyclopropyl-2-[6-(4-fluorophenyl)-2-methyl-pyrrolo[3,2-b]pyridin-1-yl]acetamide], for which, under “cloned human NR1/NR2B”, the IC50 is 5010 nM.
With `CN(C)C(=O)Cn1ccc2ncc(-c3csc(Cl)c3)cc21` [Example 439, 2-[6-(5-Chloro-3-thienyl)pyrrolo[3,2-b]pyridin-1-yl]-N,N-dimethyl-acetamide], under setting [1], the IC50 was 50.1 nM.
In the case of `CN(C)C(=O)Cn1cc(F)c2ncc(-c3ccc(F)cc3)cc21` [Example 98, 2-[3-Fluoro-6-(4-fluorophenyl)pyrrolo[3,2-b]pyridin-1-yl]-N,N-dimethyl-acetamide], the IC50 (cloned human NR1/NR2B) is 50.1 nM.
Consider `CN(C)C(=O)Cn1cc(F)c2ncc(-c3cc(F)cc(F)c3)cc21` [Example 509, 2-[6-(3,5-Difluorophenyl)-3-fluoro-pyrrolo[3,2-b]pyridin-1-yl]-N,N-dimethyl-acetamide], for which the IC50 under setting [1] is 31.6 nM.
`O=C(Cn1cc(Cl)c2ncc(-c3ccccc3)cc21)N1CC(F)C1` [Example 56, 2-(3-Chloro-6-phenyl-pyrrolo[3,2-b]pyridin-1-yl)-1-(3-fluoroazetidin-1-yl)ethanone]: where the note is “cloned human NR1/NR2B”, the IC50 was 50.1 nM.
As to `O=C(Cn1cc(F)c2ncc(-c3ccc(F)c(F)c3F)cc21)N1CC(F)C1` [Example 486, 1-(3-Fluoroazetidin-1-yl)-2-[3-fluoro-6-(2,3,4-trifluorophenyl)pyrrolo[3,2-b]pyridin-1-yl]ethanone], the IC50 under setting [1] was 25.1 nM.
Take `O=C(Cn1ccc2ncc(-c3cc(F)cc(F)c3)cc21)N1CC(F)C1` [Example 129, 2-[6-(3,5-Difluorophenyl)pyrrolo[3,2-b]pyridin-1-yl]-1-(3-fluoroazetidin-1-yl)ethanone]: under “cloned human NR1/NR2B”, the IC50 was 25.1 nM.
